Experimental data reported in publication PMC3920255 (Toxins, 2013).
≈ marks a conversion by molar mass, not a printed value. Read-outs that look alike come from different tables or passages of the source. Numbered stars: 1 amine (or outer) side, 2 acyl side, 3 side chain; on linkers, the order of the positions; unused ones are H or OH. Bridge positions count the residues as written; N and C are the ends. Square brackets hold non-standard residues; d marks the D form. Peptide text beside a SMILES is read from it. Adda = CO[C@@H](Cc1ccccc1)[C@@H](C)/C=C(C)/C=C/[C@H](N[*:1])[C@H](C)C(=O)[*:2]; dAsp(3S-Me) = C[C@H](C(=O)[*:3])[C@@H](N[*:1])C(=O)[*:2]; d(γGlu) = O=C(O)[C@@H](CCC(=O)[*:2])N[*:1]; NMeDha = C=C(NC)C(=O)O; Dha = C=C(N)C(=O)O

Legend:
[1] = system: primary cultured rat hepatocytes
primary rat hepatocytes = conditions: cited from earlier work

Row | Compound | IC50 (concentration showing 50% cell viability) [1] [µg/mL] | IC50 of MC-LR to primary rat hepatocytes, earlier study (primary rat hepatocytes) [µg/mL] | IC50 (concentration showing 50% cell viability) ([1]; 72 h) [µg/mL]
1 | C=C1NC(=O)CC[C@H](C(=O)O)NC(=O)[C@@H](C)[C@H](/C=C/C(C)=C/[C@H](C)[C@H](Cc2ccccc2)OC)NC(=O)[C@H](CCCNC(=N)N)NC(=O)C[C@H](C(=O)O)NC(=O)[C@H](CC(C)C)NC(=O)[C@@H](C)NC1=O [No.4, [D-Asp^3, Dha^7] MC-LR] | 0.217 (≈ 0.224 µM) | – | –
2 | C/C=C1\NC(=O)CC[C@H](C(=O)O)NC(=O)[C@@H](C)[C@H](/C=C/C(C)=C/[C@H](C)[C@H](Cc2ccccc2)OC)NC(=O)[C@H](CCCNC(=N)N)NC(=O)C[C@H](C(=O)O)NC(=O)[C@H](CC(C)C)NC(=O)[C@@H](C)NC1=O [No.6, [D-Asp^3, Z-Dhb^7] MC-LR] | 0.053 (≈ 0.054 µM) | – | –
3 | C=C1C(=O)N[C@H](C)C(=O)N[C@@H](CC(C)C)C(=O)N[C@@H](C(=O)O)[C@H](C)C(=O)N[C@@H](CCCNC(=N)N)C(=O)N[C@@H](/C=C/C(C)=C/[C@H](C)[C@H](Cc2ccccc2)OC)[C@H](C)C(=O)N[C@@H](C(=O)O)CCC(=O)N1C [No.1, MC-LR, reference compound] (R[Adda][d(γGlu)][NMeDha][dA]L[dAsp(3S-Me)]-OH; lactam N-7) | 0.800 (≈ 0.804 µM) | 0.048 | –
4 | C/C=C1/NC(=O)CC[C@H](C(=O)O)NC(=O)[C@@H](C)[C@H](/C=C/C(C)=C/[C@H](C)[C@H](Cc2ccccc2)OC)NC(=O)[C@H](CCCNC(=N)N)NC(=O)C[C@H](C(=O)O)NC(=O)[C@H](CCc2ccc(O)cc2)NC(=O)[C@@H](C)NC1=O [No.10, [D-Asp^3, E-Dhb^7] MC-HtyR] | – | – | 0.327 (≈ 0.313 µM)
5 | C=C1NC(=O)CC[C@H](C(=O)O)NC(=O)[C@@H](C)[C@H](/C=C/C(C)=C/[C@H](C)[C@H](Cc2ccccc2)OC)NC(=O)[C@H](CCCNC(=N)N)NC(=O)[C@@H](C)[C@H](C(=O)O)NC(=O)[C@H](Cc2ccc(O)cc2)NC(=O)[C@@H](C)NC1=O [No.8, [Dha^7] MC-YR] (R[Adda][d(γGlu)][Dha][dA]Y[dAsp(3S-Me)]-OH; lactam N-7) | 0.418 (≈ 0.405 µM) | – | –
6 | C=C1NC(=O)CC[C@H](C(=O)O)NC(=O)[C@@H](C)[C@H](/C=C/C(C)=C/[C@H](C)[C@H](Cc2ccccc2)OC)NC(=O)[C@H](CCCNC(=N)N)NC(=O)[C@@H](C)[C@H](C(=O)O)NC(=O)[C@H](CC(C)C)NC(=O)[C@@H](C)NC1=O [No.2, [Dha^7] MC-LR] (R[Adda][d(γGlu)][Dha][dA]L[dAsp(3S-Me)]-OH; lactam N-7) | 0.217 (≈ 0.221 µM) | – | –
7 | C=C1NC(=O)CC[C@H](C(=O)O)NC(=O)[C@@H](C)[C@H](/C=C/C(C)=C/[C@H](C)[C@H](Cc2ccccc2)OC)NC(=O)[C@H](CCCNC(=N)N)NC(=O)[C@@H](C)[C@H](C(=O)O)NC(=O)[C@H](CCCNC(=N)N)NC(=O)[C@@H](C)NC1=O [No.14, [Dha^7] MC-RR] (R[Adda][d(γGlu)][Dha][dA]R[dAsp(3S-Me)]-OH; lactam N-7) | 5.33 (≈ 5.2 µM) | – | –
8 | C=C1C(=O)N[C@H](C)C(=O)N[C@@H](Cc2ccc(O)cc2)C(=O)N[C@@H](C(=O)O)[C@H](C)C(=O)N[C@@H](CCCNC(=N)N)C(=O)N[C@@H](/C=C/C(C)=C/[C@H](C)[C@H](Cc2ccccc2)OC)[C@H](C)C(=O)N[C@@H](C(=O)O)CCC(=O)N1C [No.7, MC-YR] (R[Adda][d(γGlu)][NMeDha][dA]Y[dAsp(3S-Me)]-OH; lactam N-7) | 1.48 (≈ 1.42 µM) | – | –
9 | C=C1C(=O)N[C@H](C)C(=O)N[C@@H](CC(C)C)C(=O)N[C@@H](C(=O)O)CC(=O)N[C@@H](CCCNC(=N)N)C(=O)N[C@@H](/C=C/C(C)=C/[C@H](C)[C@H](Cc2ccccc2)OC)[C@H](C)C(=O)N[C@@H](C(=O)O)CCC(=O)N1C [No.3, [D-Asp^3] MC-LR] | 0.217 (≈ 0.221 µM) | – | –
10 | C=C1C(=O)N[C@H](C)C(=O)N[C@@H](CCc2ccc(O)cc2)C(=O)N[C@@H](C(=O)O)CC(=O)N[C@@H](CCCNC(=N)N)C(=O)N[C@@H](/C=C/C(C)=C/[C@H](C)[C@H](Cc2ccccc2)OC)[C@H](C)C(=O)N[C@@H](C(=O)O)CCC(=O)N1C [No.9, [D-Asp^3] MC-HtyR] | – | – | 0.347 (≈ 0.332 µM)
11 | C/C=C1/NC(=O)CC[C@H](C(=O)O)NC(=O)[C@@H](C)[C@H](/C=C/C(C)=C/[C@H](C)[C@H](Cc2ccccc2)OC)NC(=O)[C@H](CCCNC(=N)N)NC(=O)C[C@H](C(=O)O)NC(=O)[C@H](CC(C)C)NC(=O)[C@@H](C)NC1=O [No.5, [D-Asp^3, E-Dhb^7] MC-LR] | 0.133 (≈ 0.136 µM) | – | –
12 | C=C1NC(=O)CC[C@H](C(=O)O)NC(=O)[C@@H](C)[C@H](/C=C/C(C)=C/[C@H](C)[C@H](Cc2ccccc2)OC)NC(=O)[C@H](CCCNC(=N)N)NC(=O)C[C@H](C(=O)O)NC(=O)[C@H](CCCNC(=N)N)NC(=O)[C@@H](C)NC1=O [No.15, [D-Asp^3, Dha^7] MC-RR] | 4.11 (≈ 4.07 µM) | – | –
13 | C=C1C(=O)N[C@H](C)C(=O)N[C@@H](CCCNC(=N)N)C(=O)N[C@@H](C(=O)O)[C@H](C)C(=O)N[C@@H](CCCNC(=N)N)C(=O)N[C@@H](/C=C/C(C)=C/[C@H](C)[C@H](Cc2ccccc2)OC)[C@H](C)C(=O)N[C@@H](C(=O)O)CCC(=O)N1C [No.12, MC-RR] (R[Adda][d(γGlu)][NMeDha][dA]R[dAsp(3S-Me)]-OH; lactam N-7) | >10 | – | –
14 | C/C=C1\NC(=O)CC[C@H](C(=O)O)NC(=O)[C@@H](C)[C@H](/C=C/C(C)=C/[C@H](C)[C@H](Cc2ccccc2)OC)NC(=O)[C@H](CCCNC(=N)N)NC(=O)C[C@H](C(=O)O)NC(=O)[C@H](CCc2ccc(O)cc2)NC(=O)[C@@H](C)NC1=O [No.11, [D-Asp^3, Z-Dhb^7] MC-HtyR] | – | – | 0.120 (≈ 0.115 µM)
